# From EPA's ToxValDB 9.5 (doi:10.2903/j.efsa.2018.5229)
# Assays:
# Anas platyrhynchos = conditions: acute; oral; unspecified; mortality
# Apis mellifera = conditions: acute, mortality
# Canidae = conditions: chronic; duration: 1 years; oral; Dog Other; body weight
# Colinus virginianus = conditions: reproduction developmental
# Daphnia magna = conditions: chronic/long-term; duration: 21 days; reproduction
# Ictalurus punctatus = conditions: acute; duration: 96 hours; mortality
# Oryctolagus sp. = conditions: reproduction developmental; mortality
# Pimephales promelas = conditions: chronic/long-term; duration: 35 days
# Rattus norvegicus = conditions: oral
# Tagia sp. = conditions: chronic/long-term; reproduction
# Chrysoperla externa = test: LR50; higher = less toxic; conditions: not reported; mortality
# Typhlodromus pyri = test: LR50; higher = less toxic; conditions: not reported; mortality
structure (smiles),measurement,setting,value
CCOC(=O)C1CC(=O)C(=C(O)C2CC2)C(=O)C1 (centres undefined) [Trinexapac-ethyl],LD50,Anas platyrhynchos,> 2000 mg/kg-day
same,LD50,Apis mellifera; dermal,> 100 µg/piece
same,LD50,"Apis mellifera; oral, unspecified",> 83 µg/piece
same,NOAEL,Canidae,32 mg/kg-day
same,NOEL,Colinus virginianus,17.6 mg/kg-day
same,NOEC,Daphnia magna,2.4 mg/L
same,LC50,Ictalurus punctatus,35 µg/mL
same,NOAEL,Oryctolagus sp.,60 mg/kg-day
same,NOEC,Pimephales promelas,0.41 mg/L
same,LD50,"Rattus norvegicus; acute, mortality",4210 mg/kg-day
same,NOAEL,"Rattus norvegicus; subchronic, duration: 90 days, body weight",≤ 34 mg/kg-day
same,NOEC,Tagia sp.,81.9 mg/kg
same,LR50,Chrysoperla externa,> 400 g/ha
same,LR50,Typhlodromus pyri,> 15 g/ha
